Test results taken from patent US9000185B2, “Cycloalkyl ether compounds and their use as BACE inhibitors” (AstraZeneca AB, priority 2012, dated 2015).

Legend:
[1] = tested on: sAPPβ release in SH-SY5Y cells; test: sAPPβ release assay; assay type: cell-based; conditions: 17 h incubation
Experimental: SH-SY5Y cells were cultured in DMEM/F-12 with Glutamax, 10% FCS and 1% non-essential amino acids and cryopreserved and stored at −140° C. at a concentration of 7.5−9.5×10^6 cells per vial. […] The cell plates were then incubated for 7-24 h at 37° C., 5% CO2. The cell medium was removed, followed by addition of 30 μL compound diluted in DMEM/F-12 with Glutamax, 10% FCS, 1% non-essential amino acids and 1% PeSt to a final conc. of 1% DMSO. The compounds were incubated with the cells for 17 h (overnight) at 37° C., 5% CO2. Meso Scale Discovery (MSD) plates were used for the detection of sAPPβ release. MSD sAPPβ plates were blocked in 1% BSA in Tris wash buffer (40 μL/well) for 1 h on shake at r.t. and washed 1 time in Tris wash buffer (40 μL/well). 20 μL of medium was transferred to the pre-blocked and washed MSD sAPPβ microplates, and the cell plates were further used in an ATP assay to measure cytotoxicity. The MSD plates were incubated with shaking at r.t. for 2 h and the media discarded. 10 μL detection antibody was added (1 nM) per well followed by incubation with shaking at r.t. for 2 h and then discarded. 40 μL Read Buffer was added per well and the plates were read in a SECTOR Imager.

[2] = molecular target: T1, human β-Secretase (sBACE-Fc) (Homo sapiens (Human), UniProt P56817); test: Diluted TR-FRET assay; assay type: biochemical; conditions: diluted TR-FRET assay: 50 times less enzyme, 6.5 h reaction time at r.t.; read-out: IC50 in TR-FRET assay (IC50 from the diluted FRET assay)
T1 sequence (P56817 22-460): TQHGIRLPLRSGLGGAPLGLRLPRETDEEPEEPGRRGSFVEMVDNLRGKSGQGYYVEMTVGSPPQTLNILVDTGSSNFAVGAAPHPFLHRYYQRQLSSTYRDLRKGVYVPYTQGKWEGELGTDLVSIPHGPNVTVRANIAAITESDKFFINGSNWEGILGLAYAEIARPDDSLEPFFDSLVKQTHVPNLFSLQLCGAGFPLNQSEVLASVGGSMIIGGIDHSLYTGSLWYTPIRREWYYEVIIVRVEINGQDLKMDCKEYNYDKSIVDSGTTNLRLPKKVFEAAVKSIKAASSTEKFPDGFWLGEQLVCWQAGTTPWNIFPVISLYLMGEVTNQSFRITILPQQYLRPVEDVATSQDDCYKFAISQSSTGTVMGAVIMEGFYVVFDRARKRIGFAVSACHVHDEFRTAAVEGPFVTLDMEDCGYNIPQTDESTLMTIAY
Experimental: (§1) The cDNA for the soluble part of the human β-Secretase (AA 1-AA 460) was cloned using the ASP2-Fc10-1-IRES-GFP-neoK mammalian expression vector. The gene was fused to the Fc domain of IgG1 (affinity tag) and stably cloned into HEK 293 cells.
(§2) The enzyme (truncated form) was diluted to 6 μg/mL (stock 1.3 mg/mL) and the TruPoint BACE1 Substrate to 200 nM (stock 120 μM) in reaction buffer (NaAcetate, chaps, triton x-100, EDTA pH4.5). Enzyme and compound in dimethylsulphoxide (final DMSO concentration 5%) was mixed and pre-incubated for 10 minutes at RT. Substrate was then added and the reaction was incubated for 15 minutes at RT. The reaction was stopped with the addition of 0.35 vol Stop solution (NaAcetate, pH 9). The fluorescence of the product was measured on a Victor II plate reader with excitation wavelengths of 340-485 nm and emission wavelengths of 590-615 nm. The final concentration of the enzyme was 2.7 μg/ml; the final concentration of substrate was 100 nM (Km of ˜250 nM). The dimethylsulphoxide control, instead of test compound, defined the 100% activity level and 0% activity was defined by wells lacking enzyme (replaced with reaction buffer) or by a saturating dose of a known inhibitor, 2-amino-6-[3-β-methoxyphenyl)phenyl]-3,6-dimethyl-5H-pyrimidin-4-one.
Compounds with a high affinity were further tested in a diluted TR-FRET assay, conditions as described above for the TR-FRET assay, but with 50 times less enzyme and a 6.5 h long reaction time at r.t. in the dark.

[3] = molecular target: T1, human β-Secretase (sBACE-Fc); test: TR-FRET assay; assay type: biochemical; conditions: standard TR-FRET assay, 15 minutes reaction at RT
Experimental: The β-secretase enzyme used in the TR-FRET is prepared as follows:
as §1, §2

| SMILES | IC50 ([1]; Homo sapiens) [nM] | IC50 [2] [nM] | IC50 [3] [nM] | IC50 [1] [nM] |
| --- | --- | --- | --- | --- |
| CO[C@H]1CC[C@]2(CC1)Cc1ccc(OCC3CC3)cc1C21N=C(C)C(N)=N1 (stereo partly drawn) [Example 3, (1r,4r)-6′-(Cyclopropylmethoxy)-4-methoxy-5″-methyl-3′H-dispiro[cyclohexane-1,2′-indene-1′,2″-imidazol]-4″-amine] | 1.6 | 7.4 | – | – |
| CO[C@H]1CC[C@]2(CC1)Cc1ccc(OCC3(C)CC3)cc1C21N=C(C)C(N)=N1 (stereo partly drawn) [Example 1, (1r,4r)-4-Methoxy-5″-methyl-6′-[(1-methylcyclopropyl)methoxy]-3′H-dispiro[cyclohexane-1,2′-indene-1′,2″-imidazol]-4″-amine] | 2.8 | 18 | – | – |
| CO[C@H]1CC[C@]2(CC1)Cc1ccc(OCC3CC(F)(F)C3)cc1C21N=C(C)C(N)=N1 (stereo partly drawn) [Example 2, (1r,4r)-6′-[(3,3-Difluorocyclobutyl)methoxy]-4-methoxy-5″-methyl-3′H-dispiro[cyclohexane-1,2′-indene-1′,2″-imidazol]-4″-amine] | 8.4 | – | 50 | – |
| CO[C@H]1CC[C@]2(CC1)Cc1ccc(OCC3CC3(F)F)cc1C21N=C(C)C(N)=N1 (stereo partly drawn) [Example 5, (1r,4r)-6′-[(2,2-Difluorocyclopropyl)methoxy]-4-methoxy-5″-methyl-3′H-dispiro[cyclohexane-1,2′-indene-1′,2″-imidazol]-4″-amine] | 2.3 | 13 | – | – |
| CO[C@H]1CC[C@]2(CC1)Cc1ccc(OCC3CCC3)cc1C21N=C(C)C(N)=N1 (stereo partly drawn) [Example 6, (1r,4r)-6′-(Cyclobutylmethoxy)-4-methoxy-5″-methyl-3′H-dispiro[cyclohexane-1,2′-indene-1′,2″-imidazol]-4″-amine] | 1.5 | – | – | – |
| CO[C@H]1CC[C@]2(CC1)Cc1ccc(OCC3CCC3)cc1[C@@]21N=C(C)C(N)=N1 (single isomer, unassigned; isomer 1) [7, isomer 1] | – | – | – | 1.3 |

Other lines, results leading:

| IC50 ([1]; Homo sapiens) [nM] | IC50 [2] [nM] | IC50 [3] [nM] | IC50 [1] [nM] | SMILES |
| --- | --- | --- | --- | --- |
| 0.8 | 3.7 | – | – | CO[C@H]1CC[C@]2(CC1)Cc1ccc(OCCC3CC3)cc1C21N=C(C)C(N)=N1 (stereo partly drawn) [Example 8, (1r,4r)-6′-(2-Cyclopropylethoxy)-4-methoxy-5″-methyl-3′H-dispiro[cyclohexane-1,2′-indene-1′,2″-imidazol]-4″-amine] |
| – | – | > 5000 | – | CO[C@H]1CC[C@]2(CC1)Cc1ccc(OCC3CC3)cc1[C@]21N=C(C)C(N)=N1 (single isomer, unassigned; isomer 2) [4, isomer 2] |
| – | 3.7 | – | 0.9 | CO[C@H]1CC[C@]2(CC1)Cc1ccc(OCC3CC3)cc1[C@@]21N=C(C)C(N)=N1 (single isomer, unassigned; isomer 1) [4, isomer 1] |
